These results are taken from patent US20170252362A1, “METHODS & COMPOUNDS USEFUL IN HEMATOPOIETIC STEM CELL MEDICINE” (ECOLE POLYTECHNIQUE FEDERALE DE LAUSANNE (EPFL), priority 2014, published 2017).

Structures are written as SMILES.

In one assay the test system is HSCs. The note with it: CFSE labeling, culture with FCCP. How it is done: Freshly sorted LT-HSCs were incubated for 20 min at 37° C. with 1:400 CFSE stock solution (Cayman chemicals; CFSE cell division assay kit). The cells were pelleted and re-suspended in 1 ml of Stemline II (Sigma) containing 10% FBS for 20 min at 37° C. Thereafter, the cells were washed twice with 1 ml of Stemline II (Sigma) and put in culture.

In assay [1] the test system is LT-HSC:TMRM^low cells. The note with it: five days differentiation condition (SCF, Flt3, IL-3, IL-6), 5 μM FCCP, progeny transplanted.
Procedure: 100 LT-HSC:TMRM^low cells were cultured for five days under differentiation-inducing conditions in the presence or absence of 5 μM FCCP. Cell progeny were transplanted in lethally irradiated recipient mice together with 2*10^6 helper cells. Peripheral blood was collected at 4, 8 and 12 and 16 weeks to determine the level of chimerism as described above.
For transplants of HSC cultured exposed to the uncoupler FCCP, 100 LT-HSC:TMRM^low cells were cultured for five days under differentiation-inducing conditions in the presence or absence of 5 μM FCCP. Cell progeny were transplanted in lethally irradiated recipient mice together with 2*10^6 helper cells. Peripheral blood was collected at 4, 8 and 12 weeks to determine the level of chimerism.
For a further assay, the system named is cultured HSCs. To be noted: flow cytometry. In general terms: In flow cytometry, cells or beads pass a laser one at a time.
The next assay deals with whole bone marrow cells. The note with it: differentiation conditions, two days with FCCP. How it is done: (§1) HSCs were cultured under ‘expansion’ conditions in U-bottom 96-well plates for five days. Cultures were maintained in Stemline II (Sigma) supplemented with 10 μg/ml Heparin (Sigma), 100 ng/ml SCF (R&D Systems), 2 ng/ml Flt3 ligand (R&D), 20 ng/ml TPO (R&D Systems), 10 ng/ml FGF-1 (Invitrogen), 500 ng/ml IGFBP2 (R&D Systems), 100 ng/ml AngL-3 (R&D Systems). At the end of the culture period cells were stained with TMRM and analyzed or sorted by flow cytometry. To induce differentiation, HSCs were cultured in basal medium (Stemline II containing 100 ng/ml SCF and 2 ng/ml Flt3 ligand) supplemented with 20 ng/ml IL-3 (R&D Systems) and 100 ng/ml IL-6 (R&D Systems).
(§2) In a first series of experiments, quantitative clonal differentiation assays (short- and long-term colony forming unit (CFU) assays as described above) were used to test to which extent mitochondrial uncoupling could influence the colony forming behavior and efficiency of hematopoietic stem and progenitor cells (FIG. 4A-C).
(§3) For some experiments, 5 or 10 μM Carbonyl cyanide 4-(trifluoromethoxy) phenylhydrazone (FCCP) (Sigma) was added at the medium. FCCP stock solution was prepared by dissolving the powder in ethanol at 10 mM concentration.

In assay [2] the test system is LT-HSC:TMRM^low cells. To be noted: 100 LT-HSC:TMRM^low cells, two days differentiation conditions with FCCP. How it is done:
as §1, §2, §3

Assay [3] relates to hematopoietic stem and progenitor pool sizes in the bone marrow. Kind of assay: Flow cytometry analysis of hematopoietic stem and progenitor pool sizes in bone marrow of mice fed the agent. Format: in vivo, mouse. To be noted: 1 week treatment through the food, flow cytometry. How it is done:
Bone marrow (BM) cells were isolated from C57Bl/6J and C57Bl/6J Ly5.1 from crushed femora and tibia. Flow cytometry analysis of hematopoietic stem and progenitor cells was performed on freshly isolated bone marrow (BM). Cell suspensions were filtered through a 70 μm cell strainer and erythroid cells were eliminated by incubation with red blood cells lysis buffer (eBioscences). Lineage-positive cells were removed with a magnetic lineage depletion kit (Miltenyi Biotech). Cell suspensions were stained with a panel of specific antibodies for stem and progenitor cells and analyzed or FACS-sorted respectively on a BD LSRII and BD FACS Aria II.
C57Bl/6J and C57Bl/6J Ly5.1 were purchased from Charles River Laboratories International and maintained in micro-isolator cages. Mice were provided continuously with sterile food, water and bedding. Nicotinamide riboside (NR) (custom synthesized as triflate salt by Novalix in Strasbourg) was supplied in the food at 0.4 g/Kg mouse and mice were treated for 1 and 4 weeks respectively.

Assay [4] has as its system HSC mitochondrial activity. The experiment in a line: In vivo assay of HSC mitochondrial activity: TMRM flow cytometry of freshly isolated HSC from mice fed the compounds. Set-up: species or system mouse. To be noted: mice fed with the compounds. The source says: The effect of agents on HSC mitochondrial activity has been assessed by measuring mitochondrial activity in vivo: freshly isolated HSC from mice fed with the compounds were stained by TMRM and analyzed by flow cytometry.

The conditions of assay [5]: Konieczna et al., 2013; cited from earlier work.

Procedure for cultured HSCs: NADH autofluorescence was measured by flow cytometry with UV laser (ex: 350 nm, em: 460 nm).
Specifically, culture conditions that would rapidly differentiate HSCs into highly proliferative MPPs were chosen and the effect of blocking the establishment of ΔΨm on the maintenance of stemness was investigated. For that purpose, trifluorocarbonylcyanide phenylhydrazone (FCCP) which permeabilizes the inner mitochondrial membrane and disrupts its potential was used as an uncoupling agent of the electron transport from ATP generation.

Consider `N#CC(C#N)=NNc1ccc(OC(F)(F)F)cc1` [FCCP, Carbonyl cyanide 4-(trifluoromethoxy)phenylhydrazone], for which the “divisional history (induction of quiescence)” value in the assay with HSCs was “all cells in culture are rapidly dividing several times”. The “long-term multilineage blood reconstitution in recipient mice” value in the assay on LT-HSC:TMRM^low cells [1] is “dramatically higher levels of long-term multilineage blood reconstitution”. The NADH levels entry in the assay on cultured HSCs is given as “decreased NADH levels”. The “total number of colonies” value in the assay with whole bone marrow cells (15'000 whole bone marrow cells) is “striking decrease in the total number of colonies”. Moreover, in the assay with whole bone marrow cells (whole bone marrow cells), the “percentage of clonogenic multi-lineage colonies (CFU-GEMMs)” value is “increase in the percentage of clonogenic multi-lineage colonies” and the “percentage of colonies derived from more committed progenitors (M, GM)” value was “markedly decreased”. Further, in the assay with LT-HSC:TMRM^low cells [2], the “colonies derived from the most primitive cells (CFU-GEMM)” value was “concomitant increase”; the “frequency of colonies derived from the more committed progenitors (Mk, G, M and GM)” value is “striking decrease in the frequency of colonies”.

`NC(=O)c1cccnc1` [NAM, Nicotinamide]: the “hematopoietic stem and progenitor compartments in BM” value in assay [3] is “did not show significant expansion”. Besides, the “ability to reduce mitochondrial membrane potential in HSCs” value in assay [4] is “not able to significantly reduce mitochondrial membrane potential in HSCs”. In addition, in assay [5], the “platelet levels in mice” value is “did not increase the platelet levels”.
